Values of other authors, collected in patent US20180177700A1, “HAIR REMOVAL COMPOSITIONS AND METHODS” (priority 2016, published 2018).
Counter-ions that a name gives are not always drawn.

Assays:
[1] = tested on: body hair; details: all different types of body hair (scalp, facial, axillary, pubic, leg)
[2] = tested on: unwanted facial hair
[3] = topical, 24 weeks, over 594 patients, versus placebo

SMILES | hair loss induced [1] | time after drug application at which hair growth returned to baseline (transient inhibition) ([2]; after the drug application) | patients with "Clear" physician reported change in unwanted facial hair [2, 3] | patients with "Improved" physician reported change in unwanted facial hair [2, 3] | patients with "Marked" physician reported change in unwanted facial hair [2, 3]
CS(=O)(=O)OCCCCOS(C)(=O)=O [busulfan] | ~100% |  |  |  | 
NCCCC(N)(C(=O)O)C(F)F (centres unmarked) [eflornithine hydrochloride] |  | eight | 5% | 26% | 27%
